The source of these data is ChEMBL document CHEMBL5724914, “Linking interpersonal differences in gut microbiota composition and drug biotransformation activity” (2024).

The nature of data set [1]: The drug is tested on WLS-082 corresponding to human gut metagenome with ENA study accession number: PRJEB37062 and ENA sample accession number: ERS12561751 for biotransformation under anaerobic condition. The drug concentrations were measured over 9 timepoints collected between 0 and 24 hours of incubation by liquid-chromatography-coupled mass spectrometry (LC–MS). As to conditions: 2 µM.

For data set [2] the following is noted: human gut metagenome, 24 h, 2 µM.
The nature of data set [3]: The drug is tested on Z-029 corresponding to rat gut metagenome with ENA study accession number: PRJEB37062 and ENA sample accession number: ERS12561828 for biotransformation under anaerobic condition. The drug concentrations were measured over 9 timepoints collected between 0 and 24 hours of incubation by liquid-chromatography-coupled mass spectrometry (LC–MS). As to conditions: 2 µM.

A short description of data set [4]: The drug is tested on Z-004 corresponding to metagenome with ENA study accession number: PRJEB37062 and ENA sample accession number: ERS12561804 for biotransformation under anaerobic condition. The drug concentrations were measured over 9 timepoints collected between 0 and 24 hours of incubation by liquid-chromatography-coupled mass spectrometry (LC–MS). The settings on record: 2 µM.

A short description of data set [5]: The drug is tested on Z-021 corresponding to metagenome with ENA study accession number: PRJEB37062 and ENA sample accession number: ERS12561820 for biotransformation under anaerobic condition. The drug concentrations were measured over 9 timepoints collected between 0 and 24 hours of incubation by liquid-chromatography-coupled mass spectrometry (LC–MS). As to conditions: 2 µM.

The conditions of data set [6]: human gut metagenome, 24 h, 2 µM. This is another data set of the same source.
A short description of data set [7]: The drug is tested on Z-030 corresponding to mouse gut metagenome with ENA study accession number: PRJEB37062 and ENA sample accession number: ERS12561829 for biotransformation under anaerobic condition. The drug concentrations were measured over 9 timepoints collected between 0 and 24 hours of incubation by liquid-chromatography-coupled mass spectrometry (LC–MS). As to conditions: 2 µM.

For data set [8] the following is noted: human gut metagenome, 24 h, 2 µM. This is another data set of the same source.
The nature of data set [9]: The drug is tested on Z-010 corresponding to metagenome with ENA study accession number: PRJEB37062 and ENA sample accession number: ERS12561810 for biotransformation under anaerobic condition. The drug concentrations were measured over 9 timepoints collected between 0 and 24 hours of incubation by liquid-chromatography-coupled mass spectrometry (LC–MS). As to conditions: 2 µM.

The conditions of data set [10]: human gut metagenome, 24 h, 2 µM. The source holds these as a separate data set.
Data set [11] is described as follows: The drug is tested on WLS-170 corresponding to human gut metagenome with ENA study accession number: PRJEB37062 and ENA sample accession number: ERS12561762 for biotransformation under anaerobic condition. The drug concentrations were measured over 9 timepoints collected between 0 and 24 hours of incubation by liquid-chromatography-coupled mass spectrometry (LC–MS). The settings on record: 2 µM.

The conditions of data set [12]: human gut metagenome, 24 h, 2 µM. This is another data set of the same source.
For data set [13] the following is noted: human gut metagenome, 24 h, 2 µM. The source holds these as a separate data set.
The conditions of data set [14]: human gut metagenome, 24 h, 2 µM. This is another data set of the same source.
Data set [15] in a line: The drug is tested on Z-006 corresponding to mouse gut metagenome with ENA study accession number: PRJEB37062 and ENA sample accession number: ERS12561806 for biotransformation under anaerobic condition. The drug concentrations were measured over 9 timepoints collected between 0 and 24 hours of incubation by liquid-chromatography-coupled mass spectrometry (LC–MS). The settings on record: 2 µM.

Data set [16] in a line: The drug is tested on Z-016 corresponding to mouse gut metagenome with ENA study accession number: PRJEB37062 and ENA sample accession number: ERS12561815 for biotransformation under anaerobic condition. The drug concentrations were measured over 9 timepoints collected between 0 and 24 hours of incubation by liquid-chromatography-coupled mass spectrometry (LC–MS). As to conditions: 2 µM.

Data set [17] in a line: The drug is tested on WLS-240 corresponding to human gut metagenome with ENA study accession number: PRJEB37062 and ENA sample accession number: ERS12561773 for biotransformation under anaerobic condition. The drug concentrations were measured over 9 timepoints collected between 0 and 24 hours of incubation by liquid-chromatography-coupled mass spectrometry (LC–MS). The settings on record: 2 µM.

For data set [18] the following is noted: human gut metagenome, 24 h, 2 µM. The source holds these as a separate data set.
A short description of data set [19]: The drug is tested on Z-013 corresponding to rabbit gut metagenome with ENA study accession number: PRJEB37062 and ENA sample accession number: ERS12561813 for biotransformation under anaerobic condition. The drug concentrations were measured over 9 timepoints collected between 0 and 24 hours of incubation by liquid-chromatography-coupled mass spectrometry (LC–MS). As to conditions: 2 µM.

The conditions of data set [20]: human gut metagenome, 24 h, 2 µM. The source holds these as a separate data set.
Further: call rule not given here.

With `O=C(CCCN1CCC(O)(c2ccc(Cl)cc2)CC1)c1ccc(F)cc1` [HALOPERIDOL], the “Bacterial Biotransformation” value is reported as “Compound metabolized” in data set [1]; “Compound NOT metabolized” in [2]; “Compound NOT metabolized” in data set [3]; “Compound NOT metabolized” in [4]; “Compound NOT metabolized” in data set [5]; “Compound NOT metabolized” in [6]. In addition, the “Bacterial Biotransformation” value in data set [7] is listed as “Compound NOT metabolized”; in [8] it was “Compound NOT metabolized”; in data set [9] it was “Compound NOT metabolized”; in data set [10], “Compound NOT metabolized”; in data set [11] it was “Compound metabolized”; in [12], “Compound NOT metabolized”. Further, the “Bacterial Biotransformation” value in data set [13] was “Compound NOT metabolized”; in data set [14], “Compound NOT metabolized”; in [15], “Compound NOT metabolized”; in [16], “Compound NOT metabolized”; in [17], “Compound metabolized”; in data set [18], “Compound metabolized”. Besides, the “Bacterial Biotransformation” value in [19] and in data set [20] was “Compound NOT metabolized” in each case.
As to `CCCCC1=NC2(CCCC2)C(=O)N1Cc1ccc(-c2ccccc2-c2nnn[nH]2)cc1` [IRBESARTAN], the “Bacterial Biotransformation” value in data set [1] is reported as “Compound metabolized”; in [2] it was “Compound metabolized”; in [3] it was “Compound NOT metabolized”; in [4] it was “Compound metabolized”; in data set [5] it was “Compound NOT metabolized”; in data set [6], “Compound metabolized”. Further, the “Bacterial Biotransformation” value is reported as “Compound NOT metabolized” in [7]; “Compound metabolized” in data set [8]; “Compound metabolized” in [9]; “Compound metabolized” in [10]; “Compound metabolized” in [11]; “Compound NOT metabolized” in data set [12]. For the same molecule, the “Bacterial Biotransformation” value in data set [13] is recorded as “Compound metabolized”; in data set [14], “Compound metabolized”; in [15], “Compound metabolized”; in [16], “Compound NOT metabolized”; in data set [17] it was “Compound metabolized”; in [18], “Compound metabolized”. Moreover, the “Bacterial Biotransformation” value in data set [19] and in data set [20] was “Compound NOT metabolized” in each case.
As to `NC(CO)(CO)CO.O=C(c1ccccc1)c1ccc2n1CCC2C(=O)O` (stereo not given) [KETOROLAC TROMETHAMINE], the “Bacterial Biotransformation” value in data set [1] is reported as “Compound metabolized”; in data set [2], “Compound metabolized”; in [3] it was “Compound metabolized”; in data set [4] it was “Compound NOT metabolized”; in [5], “Compound metabolized”; in data set [6], “Compound metabolized”. Further, the “Bacterial Biotransformation” value in data set [7] was “Compound NOT metabolized”; in data set [8], “Compound metabolized”; in data set [9] it was “Compound metabolized”; in data set [10], “Compound metabolized”; in data set [11] it was “Compound metabolized”; in [12], “Compound NOT metabolized”. The “Bacterial Biotransformation” value in data set [13] is listed as “Compound metabolized”; in data set [14], “Compound metabolized”; in data set [15] it was “Compound NOT metabolized”; in data set [16], “Compound metabolized”; in [17] it was “Compound metabolized”; in data set [18], “Compound metabolized”. In addition, the “Bacterial Biotransformation” value in [19] and in [20] was “Compound NOT metabolized” in each case.
In the case of `CC[C@H](C)C(=O)O[C@H]1C[C@@H](C)C=C2C=C[C@H](C)[C@H](CC[C@@H]3C[C@@H](O)CC(=O)O3)[C@H]21` [LOVASTATIN], the “Bacterial Biotransformation” value is “Compound NOT metabolized” in [1]; “Compound NOT metabolized” in data set [2]; “Compound NOT metabolized” in data set [3]; “Compound NOT metabolized” in data set [4]; “Compound metabolized” in [5]; “Compound NOT metabolized” in [6]. In addition, the “Bacterial Biotransformation” value in [7] was “Compound metabolized”; in [8], “Compound NOT metabolized”; in data set [9], “Compound NOT metabolized”; in data set [10] it was “Compound NOT metabolized”; in data set [11], “Compound NOT metabolized”; in [12], “Compound NOT metabolized”. In addition, the “Bacterial Biotransformation” value in data set [13] is given as “Compound NOT metabolized”; in data set [14] it was “Compound metabolized”; in [15] it was “Compound NOT metabolized”; in data set [16], “Compound NOT metabolized”; in data set [17], “Compound NOT metabolized”; in data set [18] it was “Compound NOT metabolized”. Besides, the “Bacterial Biotransformation” value in [19] was “Compound NOT metabolized”; in data set [20] it was “Compound metabolized”.
Consider `CNC(=C[N+](=O)[O-])NCCSCc1csc(CN(C)C)n1` [NIZATIDINE], for which the “Bacterial Biotransformation” value in data set [1], in data set [2], in data set [3], in [4], in [5] and in data set [6] was “Compound NOT metabolized” throughout. In addition, the “Bacterial Biotransformation” value was “Compound metabolized” in data set [7]; “Compound metabolized” in data set [8]; “Compound NOT metabolized” in data set [9]; “Compound metabolized” in data set [10]; “Compound metabolized” in data set [11]; “Compound NOT metabolized” in [12]. Moreover, the “Bacterial Biotransformation” value in data set [13] is given as “Compound NOT metabolized”; in data set [14] it was “Compound NOT metabolized”; in [15], “Compound NOT metabolized”; in data set [16] it was “Compound NOT metabolized”; in [17], “Compound NOT metabolized”; in data set [18], “Compound metabolized”. In addition, the “Bacterial Biotransformation” value in data set [19] is “Compound NOT metabolized”; in data set [20], “Compound metabolized”.
With `COc1ccc2[nH]c([S+]([O-])Cc3ncc(C)c(OC)c3C)nc2c1` (stereo not given) [OMEPRAZOLE], the “Bacterial Biotransformation” value is on record as “Compound metabolized” in data set [1]; “Compound metabolized” in data set [2]; “Compound metabolized” in data set [3]; “Compound metabolized” in [4]; “Compound NOT metabolized” in data set [5]; “Compound metabolized” in data set [6]. Moreover, the “Bacterial Biotransformation” value in [7], in data set [8], in [9], in data set [10], in data set [11] and in data set [12] was “Compound metabolized” in each case. For the same molecule, the “Bacterial Biotransformation” value in data set [13] is “Compound metabolized”; in data set [14] it was “Compound metabolized”; in data set [15], “Compound NOT metabolized”; in data set [16] it was “Compound metabolized”; in data set [17] it was “Compound metabolized”; in data set [18], “Compound metabolized”. The “Bacterial Biotransformation” value in [19] is listed as “Compound NOT metabolized”; in [20], “Compound metabolized”.
